Measured values taken from patent publication US11807644B2 (PMV Pharmaceuticals, Inc., priority 2020, dated 2023).

biological target: T1, recombinant His-tag Y220C p53 DBD protein (Homo sapiens, UniProt P04637, Y220C); experiment: In vitro DNA binding activity assay (TR-FRET): binding of His-tag Y220C p53 DBD to biotin-labeled consensus DNA; assay type: biochemical; settings: SC150 = concentration to increase DNA binding by […], His-tag Y220C p53 DBD, biotin-labeled consensus DNA
T1 construct: recombinant His-tag Y220C p53 DBD protein (amino acids #˜94-312)

| Structure (SMILES) | Y220C SC150 (μM) |
| --- | --- |
| CN1CC[C@@H](Nc2cccc3c2cc(-c2noc(CNc4nccc5c4cnn5C)n2)n3CC(F)(F)F)[C@@H](F)C1 [Compound 452B, N-[(3S,4R)-3-fluoro-1-methylpiperidin-4-yl]-2-{5-[({1-methyl-1H-pyrazolo[^4,3-c]pyridin-4-yl}amino)methyl]-1,2,4-oxadiazol-3-yl}-1-(2,2,2-trifluoroethyl)-1H-indol-4-amine] | * (* = 0 μM ≤ SC150 < 0.1 μM) |
| COCC1(c2ccc(C(=O)NCc3nc(-c4cc5c(N[C@@H]6CCN(C)C[C@@H]6F)cccc5n4CC(F)(F)F)no3)s2)CC1 [Compound 483B, N-{[3-(4-{[(3S,4R)-3-fluoro-1-methylpiperidin-4-yl]amino}-1-(2,2,2-trifluoroethyl)-1H-indol-2-yl)-1,2,4-oxadiazol-5-yl]methyl}-5-[1-(methoxymethyl)cyclopropyl]thiophene-2-carboxamide] | * (* = 0 μM ≤ SC150 < 0.1 μM) |
| CN1CC[C@@H](Nc2cccc3c2cc(-c2noc(CNC(=O)[C@H]4C[C@H](C)C4)n2)n3CC(F)(F)F)[C@@H](F)C1 [Compound 212B, (1s,3r)-N-{[3-(4-{[(3S,4R)-3-fluoro-1-methylpiperidin-4-yl]amino}-1-(2,2,2-trifluoroethyl)-1H-indol-2-yl)-1,2,4-oxadiazol-5-yl]methyl}-3-methylcyclobutane-1-carboxamide] | * (* = 0 μM ≤ SC150 < 0.1 μM) |
| CN1CC[C@@H](Nc2cccc3c2cc(-c2noc(CNC(=O)c4ccn(C5(C)COC5)c4)n2)n3CC(F)(F)F)[C@@H](F)C1 [Compound 386B, N-{[3-(4-{[(3S,4R)-3-fluoro-1-methylpiperidin-4-yl]amino}-1-(2,2,2-trifluoroethyl)-1H-indol-2-yl)-1,2,4-oxadiazol-5-yl]methyl}-1-(3-methyloxetan-3-yl)-1H-pyrrole-3-carboxamide] | * (* = 0 μM ≤ SC150 < 0.1 μM) |
| CN1CC[C@@H](Nc2cccc3c2cc(-c2nc(CNC(=O)c4ccccc4)no2)n3CC(F)(F)F)[C@@H](F)C1 (racemic) [Compound 276B, (+/−)-N-{[5-(4-{[(3R,4S)-3-fluoro-1-methylpiperidin-4-yl]amino}-1-(2,2,2-trifluoroethyl)-1H-indol-2-yl)-1,2,4-oxadiazol-3-yl]methyl}benzamide] | * (* = 0 μM ≤ SC150 < 0.1 μM) |
| CN1CC[C@@H](Nc2cccc3c2cc(-c2noc(CNC(=O)c4ccc(N5CCCC5)cc4)n2)n3CC(F)(F)F)[C@@H](F)C1 [Compound 243B, N-{[3-(4-{[(3S,4R)-3-fluoro-1-methylpiperidin-4-yl]amino}-1-(2,2,2-trifluoroethyl)-1H-indol-2-yl)-1,2,4-oxadiazol-5-yl]methyl}-4-(pyrrolidin-1-yl)benzamide] | * (* = 0 μM ≤ SC150 < 0.1 μM) |
| Cc1nc2c(s1)CC(Nc1cccc3c1cc(-c1noc(CNC(=O)c4ccn(C(C)(C)C)c4)n1)n3CC(F)(F)F)CC2 (stereo not shown) [Compound 368B, 1-tert-butyl-N-[(3-{4-[(2-methyl-4,5,6,7-tetrahydro-1,3-benzothiazol-6-yl)amino]-1-(2,2,2-trifluoroethyl)-1H-indol-2-yl}-1,2,4-oxadiazol-5-yl)methyl]-1H-pyrrole-3-carboxamide] | *** (*** = 0.5 μM ≤ SC150 < 1 μM) |
| CC(C)N1CC[C@@H](Nc2cccc3c2cc(-c2noc(CNC(=O)c4cnn(C(C)(C)C)c4)n2)n3CC(F)(F)F)[C@@H](F)C1 [Compound 316B, 1-tert-butyl-N-{[3-(4-{[(3S,4R)-3-fluoro-1-(propan-2-yl)piperidin-4-yl]amino}-1-(2,2,2-trifluoroethyl)-1H-indol-2-yl)-1,2,4-oxadiazol-5-yl]methyl}-1H-pyrazole-4-carboxamide] | * (* = 0 μM ≤ SC150 < 0.1 μM) |
| COCC(C)(C)c1cc(C(=O)NCc2nc(-c3cc4c(N[C@@H]5CCN(C)C[C@@H]5F)cccc4n3CC(F)(F)F)no2)cs1 [Compound 485B, N-{[3-(4-{1[(3S,4R)-3-fluoro-1-methylpiperidin-4-yl]amino}-1-(2,2,2-trifluoroethyl)-1H-indol-2-yl)-1,2,4-oxadiazol-5-yl]methyl}-5-(1-methoxy-2-methylpropan-2-yl)thiophene-3-carboxamide] | * (* = 0 μM ≤ SC150 < 0.1 μM) |
| CC(C)(C)n1ccc(C(=O)NCc2nc(-c3cc4c(N[C@@H]5CCCC[C@H]5F)cccc4n3CC(F)(F)F)no2)c1 (racemic) [Compound 340B] | ** (** = 0.1 μM ≤ SC150 < 0.5 μM) |
| CN1CC[C@@H](Nc2cccc3c2cc(-c2noc(CNC(=O)c4cnc(N5CCCC5)s4)n2)n3CC(F)(F)F)[C@@H](F)C1 [Compound 459B, N-{[3-(4-{[(3S,4R)-3-fluoro-1-methylpiperidin-4-yl]amino}-1-(2,2,2-trifluoroethyl)-1H-indol-2-yl)-1,2,4-oxadiazol-5-yl]methyl}-2-(pyrrolidin-1-yl)-1,3-thiazole-5-carboxamide] | * (* = 0 μM ≤ SC150 < 0.1 μM) |
| CN1CC[C@@H](Nc2cccc3c2cc(-c2noc(CNC(=O)c4ccn(CC(C)(C)O)c4)n2)n3CC(F)(F)F)[C@@H](F)C1 [Compound 252B, N-{[3-(4-{[(3S,4R)-3-fluoro-1-methylpiperidin-4-yl]amino}-1-(2,2,2-trifluoroethyl)-1H-indol-2-yl)-1,2,4-oxadiazol-5-yl]methyl}-1-(2-hydroxy-2-methylpropyl)-1H-pyrrole-3-carboxamide] | * (* = 0 μM ≤ SC150 < 0.1 μM) |
| COCCn1cncc1C(=O)NCc1nc(-c2cc3c(N[C@@H]4CCN(C)C[C@@H]4F)cccc3n2CC(F)(F)F)no1 [Compound 268B, N-{[3-(4-{[(3S,4R)-3-fluoro-1-methylpiperidin-4-yl]amino}-1-(2,2,2-trifluoroethyl)-1H-indol-2-yl)-1,2,4-oxadiazol-5-yl]methyl}-1-(2-methoxyethyl)-1H-imidazole-5-carboxamide] | * (* = 0 μM ≤ SC150 < 0.1 μM) |
| CN1CC[C@@H](Nc2cccc3c2cc(-c2noc(CNC(=O)c4cnn(Cc5ccccc5)c4)n2)n3CC(F)(F)F)[C@@H](F)C1 [Compound 300B, 1-benzyl-N-{[3-(4-{[(3S,4R)-3-fluoro-1-methylpiperidin-4-yl]amino}-1-(2,2,2-trifluoroethyl)-1H-indol-2-yl)-1,2,4-oxadiazol-5-yl]methyl}-1H-pyrazole-4-carboxamide] | * (* = 0 μM ≤ SC150 < 0.1 μM) |
| CN1CC[C@H](F)[C@H](Nc2cccc3c2cc(-c2noc(CNC(=O)c4cnn(C(C)(C)C)c4)n2)n3CC(F)(F)F)C1 [Compound 408B, 1-tert-butyl-N-{[3-(4-{[(3R,4S)-4-fluoro-1-methylpiperidin-3-yl]amino}-1-(2,2,2-trifluoroethyl)-1H-indol-2-yl)-1,2,4-oxadiazol-5-yl]methyl}-1H-pyrazole-4-carboxamide] | * (* = 0 μM ≤ SC150 < 0.1 μM) |
| CN1CC[C@@H](Nc2cccc3c2cc(-c2noc(CNC(=O)c4ccc5c(ccn5C)c4)n2)n3CC(F)(F)F)[C@@H](F)C1 [Compound 259B, N-{[3-(4-{[(3S,4R)-3-fluoro-1-methylpiperidin-4-yl]amino}-1-(2,2,2-trifluoroethyl)-1H-indol-2-yl)-1,2,4-oxadiazol-5-yl]methyl}-1-methyl-1H-indole-5-carboxamide] | * (* = 0 μM ≤ SC150 < 0.1 μM) |
| Cc1cc(C(=O)NCc2nc(-c3cc4c(N[C@@H]5CCN(C)C[C@@H]5F)cccc4n3CC(F)(F)F)no2)cn1C [Compound 219B, N-{[3-(4-{[(3S,4R)-3-fluoro-1-methylpiperidin-4-yl]amino}-1-(2,2,2-trifluoroethyl)-1H-indol-2-yl)-1,2,4-oxadiazol-5-yl]methyl}-1,5-dimethyl-1H-pyrrole-3-carboxamide] | * (* = 0 μM ≤ SC150 < 0.1 μM) |
| CN1CC[C@H](Nc2cccc3c2cc(-c2nnc(CNC(=O)C4CCCC4)s2)n3CC(F)(F)F)[C@H](F)C1 (racemic) [Compound 29B, (+/−)-N-{[5-(4-{[(3R,4S)-3-fluoro-1-methylpiperidin-4-yl]amino}-1-(2,2,2-trifluoroethyl)-1H-indol-2-yl)-1,3,4-thiadiazol-2-yl]methyl}cyclopentanecarboxamide] | ** (** = 0.1 μM ≤ SC150 < 0.5 μM) |
| C[C@@H]1C[C@H]1C(=O)NCc1nnc(-c2cc3c(NC4CCN(C)CC4)cccc3n2CC(F)(F)F)s1 (racemic) [Compound 34B, (+/−)-(1R,2R)-2-methyl-N-[(5-{4-[(1-methylpiperidin-4-yl)amino]-1-(2,2,2-trifluoroethyl)-1H-indol-2-yl}-1,3,4-thiadiazol-2-yl)methyl]cyclopropane-1-carboxamide] | * (* = 0 μM ≤ SC150 < 0.1 μM) |

same assay, conditions: concentration to increase DNA binding by […], incubated at either 27° C. or 29° C. for 60 min

| Structure (SMILES) | SC150 (μM) |
| --- | --- |
| COCC(O)CN1CCC(Nc2cccc3c2cc(-c2cccc(NC(C)=O)c2)n3CC(F)(F)F)CC1 (stereo not shown) [Compound 51A, N-[3-(4-{[1-(2-hydroxy-3-methoxypropyl)piperidin-4-yl]amino}-1-(2,2,2-trifluoroethyl)-1H-indol-2-yl)phenyl]acetamide] | ++++ (++++ = 10 μM ≤ SC150 < 35 μM) |
| O=S1(=O)CCC(Nc2cccc3c2cc(-c2cccc(Cl)c2)n3CC(F)(F)F)CC1 [Compound 12A, 4-{[2-(3-chlorophenyl)-1-(2,2,2-trifluoroethyl)-1H-indol-4-yl]amino}-1λ^6-thiane-1,1-dione] | ++++ (++++ = 10 μM ≤ SC150 < 35 μM) |
| CC(C)(C#N)c1ccc(NCc2ccc(-c3cc4c(NC5CCS(=O)(=O)CC5)cccc4n3CC(F)(F)F)cc2)cn1 [Compound 7A, 2-(5-{[(4-{4-[(1,1-dioxo-1λ^6-thian-4-yl)amino]-1-(2,2,2-trifluoroethyl)-1H-indol-2-yl}phenyl)methyl]amino}pyridine-2-yl)-2-methylpropanenitrile] | ++ (++ = 2 μM ≤ SC150 < 5 μM) |
